Test results: patent US9346798B2, “Dihydrobenzoxazine and tetrahydroquinoxaline sodium channel inhibitors” (AMGEN INC., priority 2012, dated 2016)

Assays:
Type in all cases: cell-based
Nav 1.5 = Nav 1.5 (Homo sapiens (Human), UniProt Q14524); test: Nav 1.5 in vitro assay, IonWorks Quattro (IWQ) population patch-clamp; details: HEK 293 cells stably transfected with Nav 1.5; 26th pulse to -20 mV
Procedure: (§1) Nav 1.7 and Nav 1.5 In Vitro Assays
(§2) HEK 293 cells stably transfected with either Nav 1.7 or with Nav 1.5 were recorded in population patch-clamp mode with the IonWorks® Quattro automated electrophysiology system in accordance with the manufacturer's specifications (Molecular Devices, LLC, Sunnyvale, Calif.). Sodium channel currents were measured in response to a train of depolarizations that induced successively greater inactivation.
(§3) Cells were held at −110 mV for three seconds (Nav 1.7) or half a second (Nav 1.5) from a holding voltage of −15 mV, then put through a series of 26 pulses of 150 msec duration to −20 mV at a frequency of 5 Hz. Cells were then left unclamped for a period of 3 to 8 minutes while a single concentration of test compound was added. Cells were then reclamped and put through the same voltage protocol. Current at the end of the 26th pulse to −20 mV was subtracted from the peak current evoked by the 26th pulse to −20 mV to correct for leak current. Percent block was calculated for each concentration in duplicate, and IC50 curves were fitted to percent block as a function of concentration.

Nav 1.7 [1] = target: T1, Nav 1.7 (Homo sapiens (Human), UniProt Q15858); test: Nav 1.7 in vitro PX assay, PatchXpress whole cell voltage clamp; details: HEK 293 cells stably transfected with human Nav1.7; for IC50: partially inactivated state (20 to 50% inactivation); for inhibition at 4.9 µM: HEK293, values marked *, read-out: Nav 1.7 PX percent inhibition at 4.9 μM
T1 sequence (Q15858 whole entry): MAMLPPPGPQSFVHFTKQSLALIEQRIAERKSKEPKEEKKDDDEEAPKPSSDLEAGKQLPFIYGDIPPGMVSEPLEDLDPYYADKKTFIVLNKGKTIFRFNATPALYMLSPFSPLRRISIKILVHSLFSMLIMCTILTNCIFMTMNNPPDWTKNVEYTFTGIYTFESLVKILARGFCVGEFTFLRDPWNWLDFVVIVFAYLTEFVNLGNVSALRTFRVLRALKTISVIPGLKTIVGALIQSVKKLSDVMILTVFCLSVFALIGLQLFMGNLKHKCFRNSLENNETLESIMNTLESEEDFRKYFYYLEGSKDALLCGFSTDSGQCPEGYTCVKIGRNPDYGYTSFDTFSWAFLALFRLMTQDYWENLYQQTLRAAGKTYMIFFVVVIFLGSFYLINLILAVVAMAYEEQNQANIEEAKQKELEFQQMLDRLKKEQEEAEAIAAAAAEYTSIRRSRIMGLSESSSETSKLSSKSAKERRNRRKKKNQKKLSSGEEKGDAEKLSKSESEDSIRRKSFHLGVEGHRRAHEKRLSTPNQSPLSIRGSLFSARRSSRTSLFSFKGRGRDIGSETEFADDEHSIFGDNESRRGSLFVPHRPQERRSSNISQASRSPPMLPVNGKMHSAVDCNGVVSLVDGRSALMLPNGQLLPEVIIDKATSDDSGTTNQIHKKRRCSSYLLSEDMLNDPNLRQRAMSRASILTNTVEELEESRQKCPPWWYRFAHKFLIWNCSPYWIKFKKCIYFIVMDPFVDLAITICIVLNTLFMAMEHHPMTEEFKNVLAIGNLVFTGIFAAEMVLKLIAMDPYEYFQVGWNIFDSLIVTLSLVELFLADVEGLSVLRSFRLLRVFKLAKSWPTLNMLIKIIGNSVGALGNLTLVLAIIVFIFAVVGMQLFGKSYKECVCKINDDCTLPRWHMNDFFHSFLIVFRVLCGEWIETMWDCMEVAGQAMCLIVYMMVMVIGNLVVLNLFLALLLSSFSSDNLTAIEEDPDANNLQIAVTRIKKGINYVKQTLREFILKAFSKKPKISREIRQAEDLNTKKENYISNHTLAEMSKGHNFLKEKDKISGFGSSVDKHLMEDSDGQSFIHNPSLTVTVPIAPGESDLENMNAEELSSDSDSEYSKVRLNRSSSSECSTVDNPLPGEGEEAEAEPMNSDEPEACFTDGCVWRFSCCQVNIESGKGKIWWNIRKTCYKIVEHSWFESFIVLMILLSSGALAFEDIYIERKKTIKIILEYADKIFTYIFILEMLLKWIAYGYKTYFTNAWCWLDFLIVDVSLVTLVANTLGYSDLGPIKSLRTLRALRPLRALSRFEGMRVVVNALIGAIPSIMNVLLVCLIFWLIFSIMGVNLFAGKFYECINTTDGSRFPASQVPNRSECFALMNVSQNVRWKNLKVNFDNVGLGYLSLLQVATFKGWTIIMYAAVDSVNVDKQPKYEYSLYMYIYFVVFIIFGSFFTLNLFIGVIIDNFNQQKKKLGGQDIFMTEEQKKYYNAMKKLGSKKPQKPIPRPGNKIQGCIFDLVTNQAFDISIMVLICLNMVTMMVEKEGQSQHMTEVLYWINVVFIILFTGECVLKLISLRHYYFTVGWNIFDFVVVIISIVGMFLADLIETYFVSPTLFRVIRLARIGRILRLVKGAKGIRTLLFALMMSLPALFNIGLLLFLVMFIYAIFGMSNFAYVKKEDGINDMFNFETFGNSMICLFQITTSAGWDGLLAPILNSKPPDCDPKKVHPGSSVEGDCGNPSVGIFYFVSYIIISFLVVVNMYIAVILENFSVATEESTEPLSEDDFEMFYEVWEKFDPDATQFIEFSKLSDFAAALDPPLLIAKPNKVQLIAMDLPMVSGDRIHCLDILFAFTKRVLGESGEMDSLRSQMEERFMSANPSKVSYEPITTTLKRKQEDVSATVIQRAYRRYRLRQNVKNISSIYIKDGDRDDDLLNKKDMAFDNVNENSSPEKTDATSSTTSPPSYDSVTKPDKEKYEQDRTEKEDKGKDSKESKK
Procedure, shortened: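 HEK293 cells stably expressing human Nav1.7, whole-cell voltage clamp at a holding potential giving 20–50% inactivation; currents elicited by 20 msec pulses to −10 mV at 0.1 Hz.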

Nav 1.7 [2] = target: T1, Nav 1.7; test: Nav 1.7 in vitro assay, IonWorks Quattro (IWQ) population patch-clamp; details: HEK 293 cells stably transfected with Nav 1.7; 26th pulse to -20 mV
Procedure: as §1, §2, §3

Sequence of Nav 1.5 (Q14524 whole entry): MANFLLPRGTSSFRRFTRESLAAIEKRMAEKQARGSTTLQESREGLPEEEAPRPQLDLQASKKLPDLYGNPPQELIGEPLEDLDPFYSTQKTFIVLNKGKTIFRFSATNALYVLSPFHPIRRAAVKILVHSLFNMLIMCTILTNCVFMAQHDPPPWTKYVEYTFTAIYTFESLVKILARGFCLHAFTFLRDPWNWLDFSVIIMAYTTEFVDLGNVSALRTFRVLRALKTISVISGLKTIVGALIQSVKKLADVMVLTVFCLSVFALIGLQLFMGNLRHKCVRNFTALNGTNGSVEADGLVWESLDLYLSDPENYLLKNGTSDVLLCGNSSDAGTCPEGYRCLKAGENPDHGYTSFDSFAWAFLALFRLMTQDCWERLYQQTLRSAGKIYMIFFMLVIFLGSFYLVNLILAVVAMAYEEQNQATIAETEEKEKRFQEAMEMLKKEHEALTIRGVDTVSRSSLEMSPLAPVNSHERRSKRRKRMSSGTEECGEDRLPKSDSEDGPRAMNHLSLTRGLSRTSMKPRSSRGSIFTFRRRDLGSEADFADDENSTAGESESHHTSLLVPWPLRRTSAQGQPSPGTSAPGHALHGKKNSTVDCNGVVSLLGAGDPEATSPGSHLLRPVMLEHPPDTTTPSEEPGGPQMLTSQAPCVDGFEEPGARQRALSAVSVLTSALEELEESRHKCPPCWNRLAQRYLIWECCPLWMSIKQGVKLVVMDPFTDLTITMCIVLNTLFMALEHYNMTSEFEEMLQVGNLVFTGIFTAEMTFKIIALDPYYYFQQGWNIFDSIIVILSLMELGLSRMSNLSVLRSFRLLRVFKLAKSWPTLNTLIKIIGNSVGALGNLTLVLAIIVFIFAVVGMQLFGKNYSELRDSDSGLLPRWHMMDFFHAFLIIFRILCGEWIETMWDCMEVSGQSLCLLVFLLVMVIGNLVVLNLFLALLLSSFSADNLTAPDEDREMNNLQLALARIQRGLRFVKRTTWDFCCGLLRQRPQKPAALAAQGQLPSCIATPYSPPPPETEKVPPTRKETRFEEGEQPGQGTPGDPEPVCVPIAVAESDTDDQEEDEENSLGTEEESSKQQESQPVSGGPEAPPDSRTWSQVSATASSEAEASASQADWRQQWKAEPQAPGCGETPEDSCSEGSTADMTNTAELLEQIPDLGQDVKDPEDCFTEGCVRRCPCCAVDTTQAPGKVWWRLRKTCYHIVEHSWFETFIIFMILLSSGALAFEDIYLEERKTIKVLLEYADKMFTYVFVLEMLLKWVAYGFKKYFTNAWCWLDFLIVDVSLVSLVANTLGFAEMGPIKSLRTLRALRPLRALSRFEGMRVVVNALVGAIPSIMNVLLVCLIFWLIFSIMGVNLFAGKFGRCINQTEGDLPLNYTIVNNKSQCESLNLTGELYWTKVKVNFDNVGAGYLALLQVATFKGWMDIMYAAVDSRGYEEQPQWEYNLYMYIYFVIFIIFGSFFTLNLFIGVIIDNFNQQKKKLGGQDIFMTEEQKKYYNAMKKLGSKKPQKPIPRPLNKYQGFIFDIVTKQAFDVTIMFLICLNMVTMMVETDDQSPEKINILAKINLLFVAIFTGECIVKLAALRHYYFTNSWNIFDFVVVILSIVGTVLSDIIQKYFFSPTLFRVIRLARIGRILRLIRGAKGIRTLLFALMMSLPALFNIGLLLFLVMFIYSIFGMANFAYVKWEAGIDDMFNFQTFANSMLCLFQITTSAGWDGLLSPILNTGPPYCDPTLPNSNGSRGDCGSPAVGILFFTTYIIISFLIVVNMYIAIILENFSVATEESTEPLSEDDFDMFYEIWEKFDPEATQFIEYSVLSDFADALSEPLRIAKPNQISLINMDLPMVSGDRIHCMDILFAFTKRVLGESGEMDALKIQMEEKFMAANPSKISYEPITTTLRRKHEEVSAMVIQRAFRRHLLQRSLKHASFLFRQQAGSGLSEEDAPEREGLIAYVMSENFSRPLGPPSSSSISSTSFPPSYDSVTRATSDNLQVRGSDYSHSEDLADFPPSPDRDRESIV

| SMILES | IC50 (Nav 1.7 [1]) [µM] | IC50 (Nav 1.7 [2]) [µM] | inhibition at 4.9 µM (Nav 1.7 [1]) [%] | IC50 (Nav 1.5) [µM] |
| --- | --- | --- | --- | --- |
| O=S(=O)(Nc1ncns1)c1ccc2c(c1)NCCN2c1ccc(C(F)(F)F)cc1Cl [Example 18, 1-(2-Chloro-4-(Trifluoromethyl)Phenyl)-N-(1,2,4-Thiadiazol-5-Yl)-1,2,3,4-Tetrahydroquinoxaline-6-Sulfonamide] | 0.946 | 1.04 | – | > 10 |
| Cc1nsc(NS(=O)(=O)c2ccc3c(c2)OCCN3c2ccc(C(F)(F)F)cc2Cl)n1 [Example 10, 4-(2-Chloro-4-(Trifluoromethyl)Phenyl)-N-(3-Methyl-1,2,4-Thiadiazol-5-Yl)-3,4-Dihydro-2H-Benzo[B][1,4]Oxazine-7-Sulfonamide] | 6.75 | 4.61 | – | > 10 |
| O=S(=O)(Nc1ccon1)c1ccc2c(c1)OCCN2c1ccc(C(F)(F)F)cc1Cl [Example 13, 4-(2-Chloro-4-(Trifluoromethyl)Phenyl)-N-(Isoxazol-3-Yl)-3,4-Dihydro-2H-Benzo[B][1,4]Oxazine-7-Sulfonamide] | 5.16 | 1.72 | – | > 10 |
| Cn1nccc1-c1cc(C(F)(F)F)ccc1N1CCOc2cc(S(=O)(=O)Nc3ncns3)ccc21 [Example 3, 4-(2-(1-Methyl-1H-Pyrazol-5-Yl)-4-(Trifluoromethyl)Phenyl)-N-(1,2,4-Thiadiazol-5-Yl)-3,4-Dihydro-2H-Benzo[B][1,4]Oxazine-7-Sulfonamide] | 0.0577 | 0.0108 | – | 1.87 |
| O=S(=O)(Nc1cccnn1)c1ccc2c(c1)OCCN2c1ccc(C(F)(F)F)cc1Cl [Example 27, 4-(2-Chloro-4-(Trifluoromethyl)Phenyl)-N-(Pyridazin-3-Yl)-3,4-Dihydro-2H-Benzo[B][1,4]Oxazine-7-Sulfonamide] | 10.7 | 1.25 | – | > 10 |
| O=S(=O)(Nc1cc(Cl)ncn1)c1ccc2c(c1)OCCN2c1ccc(C(F)(F)F)cc1Cl [Example 9, 4-(2-Chloro-4-(Trifluoromethyl)Phenyl)-N-(6-Chloropyrimidin-4-Yl)-3,4-Dihydro-2H-Benzo[B][1,4]Oxazine-7-Sulfonamide] | 6.32 | 0.876 | – | > 10 |
| Nc1cc(-c2cc(C(F)(F)F)ccc2N2CCOc3cc(S(=O)(=O)Nc4ncns4)ccc32)ccn1 [Example 29, 4-(2-(2-Aminopyridin-4-Yl)-4-(Trifluoromethyl)Phenyl)-N-(1,2,4-Thiadiazol-5-Yl)-3,4-Dihydro-2H-Benzo[B][1,4]Oxazine-7-Sulfonamide] | 0.079 | 0.0095 | – | 0.634 |
| CN1CC=C(c2cc(C(F)(F)F)ccc2N2CCOc3cc(S(=O)(=O)Nc4ncns4)ccc32)CC1 [Example 22, 4-(2-(1-Methyl-1,2,3,6-Tetrahydropyridin-4-Yl)-4-(Trifluoromethyl)Phenyl)-N-(1,2,4-Thiadiazol-5-Yl)-3,4-Dihydro-2H-Benzo[B][1,4]Oxazine-7-Sulfonamide 2,2,2-Trifluoroacetate] | 0.134 | 0.0105 | – | > 10 |
| O=S(=O)(Nc1ncns1)c1ccc2c(c1)OCCN2c1ccc(C(F)(F)F)cc1-c1cccnc1 [Example 21, 4-(2-(Pyridin-3-Yl)-4-(Trifluoromethyl)Phenyl)-N-(1,2,4-Thiadiazol-5-Yl)-3,4-Dihydro-2H-Benzo[B][1,4]Oxazine-7-Sulfonamide] | 0.162 | 0.0158 | – | 1.33 |
| COCCNc1cc(C(F)(F)F)ccc1N1CCOc2cc(S(=O)(=O)Nc3ccncn3)ccc21 [Example 48, 4-(2-((2-Methoxyethyl)Amino)-4-(Trifluoromethyl)Phenyl)-N-(Pyrimidin-4-Yl)-3,4-Dihydro-2H-Benzo[B][1,4]Oxazine-7-Sulfonamide] | 0.719 | 0.0285 | – | > 10 |
| O=S(=O)(Nc1ccccn1)c1ccc2c(c1)OCCN2c1ccc(C(F)(F)F)cc1Br [Example 60, 4-(2-Bromo-4-(Trifluoromethyl)Phenyl)-N-(Pyridin-2-Yl)-3,4-Dihydro-2H-Benzo[B][1,4]Oxazine-7-Sulfonamide] | – | 1.47 | 24.4 | > 10 |

Continued, in another order:

| IC50 (Nav 1.7 [1]) [µM] | IC50 (Nav 1.7 [2]) [µM] | inhibition at 4.9 µM (Nav 1.7 [1]) [%] | SMILES | IC50 (Nav 1.5) [µM] |
| --- | --- | --- | --- | --- |
| 0.566 | 0.0785 | – | CC1CN(c2ccc(C(F)(F)F)cc2C#N)c2ccc(S(=O)(=O)Nc3nccs3)cc2O1 (racemic) [Example 93, 4-(2-Cyano-4-(Trifluoromethyl)Phenyl)-2-Methyl-N-(Thiazol-2-Yl)-3,4-Dihydro-2H-Benzo[B][1,4]Oxazine-7-Sulfonamide] | 1.84 |
| 1.65 | 0.288 | – | Cc1cc(N2CCOc3cc(S(=O)(=O)Nc4nccs4)ccc32)ccc1F [Example 81, 4-(4-Fluoro-3-Methylphenyl)-N-(Thiazol-2-Yl)-3,4-Dihydro-2H-Benzo[B][1,4]Oxazine-7-Sulfonamide 2,2,2-Trifluoroacetate] | > 10 |
| 1.05 | 0.0335 | – | COc1ncc(Cl)cc1N1CCOc2cc(S(=O)(=O)Nc3nccs3)ccc21 [Example 111, 4-(5-Chloro-2-methoxypyridin-3-yl)-N-(thiazol-2-yl)-3,4-dihydro-2H-benzo[b][1,4]oxazine-7-sulfonamide] | 3.03 |
| 1.39 | 0.202 | – | N#Cc1cc(N2CCOc3cc(S(=O)(=O)Nc4nccs4)ccc32)ccc1F [Example 175, 4-(3-Cyano-4-Fluorophenyl)-N-(Thiazol-2-Yl)-3,4-Dihydro-2H-Benzo[B][1,4]Oxazine-7-Sulfonamide 2,2,2-Trifluoroacetate] | 5.08 |
| 0.392 | 0.186 | – | N#Cc1ccc(C(F)(F)F)cc1N1CCOc2cc(S(=O)(=O)Nc3nccs3)ccc21 [Example 184, 4-(2-Cyano-5-(Trifluoromethyl)Phenyl)-N-(Thiazol-2-Yl)-3,4-Dihydro-2H-Benzo[B][1,4]Oxazine-7-Sulfonamide] | 3.17 |
| 0.382 | 0.038 | – | COc1ccccc1N1CCOc2cc(S(=O)(=O)Nc3nccs3)ccc21 [Example 205, 4-(2-methoxyphenyl)-N-(thiazol-2-yl)-3,4-dihydro-2H-benzo[b][1,4]oxazine-7-sulfonamide] | > 10 |
| 7.67 | 0.894 | – | COc1cnc(N2CCOc3cc(S(=O)(=O)Nc4nccs4)ccc32)c(OC)c1 [Example 144, 4-(3,5-Dimethoxypyridin-2-yl)-N-(thiazol-2-yl)-3,4-dihydro-2H-benzo[b][1,4]oxazine-7-sulfonamide] | > 10 |
| 11.1 | 0.683 | – | O=S(=O)(Nc1nccs1)c1ccc2c(c1)OCCN2c1cccc2cccnc12 [Example 166, 4-(Quinolin-8-Yl)-N-(Thiazol-2-Yl)-3,4-Dihydro-2H-Benzo[B][1,4]Oxazine-7-Sulfonamide 2,2,2-Trifluoroacetate] | > 10 |
| 8.15 | 1.42 | – | N#Cc1cccc(F)c1N1CCOc2cc(S(=O)(=O)Nc3nccs3)ccc21 [Example 159, 4-(2-Cyano-6-Fluorophenyl)-N-(Thiazol-2-Yl)-3,4-Dihydro-2H-Benzo[B][1,4]Oxazine-7-Sulfonamide] | > 10 |
| 3.25 | 0.643 | – | Cc1ccc(C(C)C)c(N2CCOc3cc(S(=O)(=O)Nc4nccs4)ccc32)c1 [Example 168, 4-(2-Isopropyl-5-Methylphenyl)-N-(Thiazol-2-Yl)-3,4-Dihydro-2H-Benzo[B][1,4]Oxazine-7-Sulfonamide 2,2,2-Trifluoroacetate] | > 10 |
| – | 3.78 | 33.9 | O=S(=O)(Nc1nccs1)c1ccc2c(c1)OCCN2c1ccc2nccnc2c1 [Example 69, 4-(Quinoxalin-6-Yl)-N-(Thiazol-2-Yl)-3,4-Dihydro-2H-Benzo[B][1,4]Oxazine-7-Sulfonamide 2,2,2-Trifluoroacetate] | 4.44 |
| 6.15 | 0.652 | – | N#Cc1ccc(N2CCOc3cc(S(=O)(=O)Nc4nccs4)ccc32)cc1OC(F)(F)F [Example 167, 4-(4-cyano-3-(trifluoromethoxy)phenyl)-N-(thiazol-2-yl)-3,4-dihydro-2H-benzo[b][1,4]oxazine-7-sulfonamide] | > 10 |
| 1.37 | 0.163 | – | Cc1ccc(C#N)c(N2CCOc3cc(S(=O)(=O)Nc4nccs4)ccc32)c1 [Example 194, 4-(2-Cyano-5-Methylphenyl)-N-(Thiazol-2-Yl)-3,4-Dihydro-2H-Benzo[B][1,4]Oxazine-7-Sulfonamide] | 3.59 |
| 0.74 | 0.0365 | – | Cc1cc(C#N)ccc1N1CCOc2cc(S(=O)(=O)Nc3nccs3)ccc21 [Example 226, 4-(4-Cyano-2-Methylphenyl)-N-(Thiazol-2-Yl)-3,4-Dihydro-2H-Benzo[B][1,4]Oxazine-7-Sulfonamide] | > 10 |
| 11.5 | 0.86 | – | CCOc1ccc(N2CCOc3cc(S(=O)(=O)Nc4nccs4)ccc32)cn1 [Example 138, 4-(6-Ethoxypyridin-3-yl)-N-(thiazol-2-yl)-3,4-dihydro-2H-benzo[b][1,4]oxazine-7-sulfonamide] | 3.83 |
